Values after ≈ are worked out from the molar mass of the structure shown.
Legend:
[1] = test system: Staphylococcus aureus SMITH; test: In vitro antibacterial activity, agar dilution method (MIC); type: cell-based; conditions: 37° C., 18-20 hrs
Procedure: (§1) In vitro antibacterial activity was determined by the agar dilution method as described below.
(§2) One loopful of each test bacterium on a slant was inoculated into 1 ml of a growth medium (Trypto Soy Broth, Eiken Chemical Co.) and incubated at 37° C. for 18-20 hours. For the growth of Streptococci, Mueller-Hinton broth (Difco) supplemented with 3%(V/V) horse serum was employed. A hundred-fold dilution of the culture is used as an inoculum suspension of the bacterium.
(§3) The sample (9-10 mg) was weighed and dissolved in distilled water at a concentration of 2 mg/ml.
(§4) A sample solution was subjected to serial two fold dilutions with sterile water (2000-0.25 μg/ml). To sterile plastic petri dishes (9 cm in diameter) was poured 0.5 ml-aliquot of sample solutions, which was mixed with 9.5 ml of an agar medium (Sensitivity Test Agar, "Nissui"). For Streptococci, horse serum was supplied at 0.5%(V/V).
(§5) One loopful (1.0 μl) of the inoculum suspension was placed on the surface of the agar plates prepared as noted above. The bacterial growth was examined visually after overnight incubation (18-20 hrs) at 37° C.

[2] = test system: Staphylococcus aureus SR14 (penicillin resistant); test: as above; type: cell-based; conditions: 37° C., 18-20 hrs
Procedure: as §1, §2, §3, §4, §5

[3] = test system: Streptococcus pyogenes C-203; test: as above; type: cell-based; conditions: agar dilution with 0.5% horse serum, 37° C., 18-20 hrs
Procedure: as §1, §2, §3, §4, §5

[4] = test system: Staphylococcus aureus FDA 209F JC-1; test: as above; type: cell-based; conditions: 37° C., 18-20 hrs
Procedure: as §1, §2, §3, §4, §5

[5] = test system: Staphylococcus aureus SR1626 (methicillin resistant); test: as above; type: cell-based; conditions: 37° C., 18-20 hrs
Procedure: as §1, §2, §3, §4, §5

[6] = test system: Streptococcus agalactica SR1247; test: as above; type: cell-based; conditions: agar dilution with 0.5% horse serum, 37° C., 18-20 hrs
Procedure: as §1, §2, §3, §4, §5

[7] = test system: Micrococcus luteus ATCC 9341; test: as above; type: cell-based; conditions: 37° C., 18-20 hrs
Procedure: as §1, §2, §3, §4, §5

[8] = test system: Streptococcus pneumoniae Type I; test: as above; type: cell-based; conditions: agar dilution with 0.5% horse serum, 37° C., 18-20 hrs
Procedure: as §1, §2, §3, §4, §5

[9] = test system: Staphylococcus aureus SR3626 (methicillin resistant); test: as above; type: cell-based; conditions: 37° C., 18-20 hrs
Procedure: as §1, §2, §3, §4, §5

[10] = test system: Streptococcus faecalis SR1004; test: as above; type: cell-based; conditions: agar dilution with 0.5% horse serum, 37° C., 18-20 hrs
Procedure: as §1, §2, §3, §4, §5

[11] = test system: Staphylococcus aureus 3131 (methicillin resistant); test: as above; type: cell-based; conditions: 37° C., 18-20 hrs
Procedure: as §1, §2, §3, §4, §5

[12] = test system: Staphylococcus aureus ATCC 25923; test: as above; type: cell-based; conditions: 37° C., 18-20 hrs
Procedure: as §1, §2, §3, §4, §5

[13] = Solubility (physicochemical property)
[14] = test system: Staphylococcus aureus SMITH; test: Protective test in mice (in vivo antibacterial activity); conditions: Staphylococcus aureus SMITH i.p. challenge, Slc-ICR female mice; s.c. 1 and 5 hours post-infection; survival on day 7
Procedure: (§6) Method: Test bacterium is intraperitoneally challenged to Slc-ICR female mice (8 mice/group), to which PA-42867-A and des-(4-epi-vancosaminyl) PA-42867-A (serial two fold dilution) are subcutaneously administered 1 and 5 hours post-infection.
(§7) Result: ED50 (50% effective dose) is calculated from survival rate of mice on day 7 after the infection.

[15] = test system: Streptococcus pneumoniae Type I; test: as above; conditions: Streptococcus pneumoniae Type I i.p. challenge, Slc-ICR female mice; s.c. 1 and 5 hours post-infection; survival on day 7
Procedure: as §6, §7

[16] = test system: Streptoccus pyogenes C-302; test: as above; conditions: Streptoccus pyogenes C-302 i.p. challenge, Slc-ICR female mice; s.c. 1 and 5 hours post-infection; survival on day 7
Procedure: as §6, §7

[17] = test system: Staphylococcus aureus SR2030 (methicillin-resistant); test: as above; conditions: Staphylococcus aureus SR2030 (methicillin-resistant) i.p. challenge, Slc-ICR female mice; s.c. 1 and 5 hours post-infection; survival on day 7
Procedure: as §6, §7

[18] = in ether, benzene, chloroform and ethyl acetate

MIC [1] [µg/mL] | MIC [2] [µg/mL] | MIC [3] [µg/mL] | MIC [4] [µg/mL] | MIC [5] [µg/mL] | MIC [6] [µg/mL] | MIC [7] [µg/mL] | MIC [8] [µg/mL] | MIC [9] [µg/mL] | MIC [10] [µg/mL] | MIC [11] [µg/mL] | MIC [12] [µg/mL] | Solubility ([13]; in alcohol) | Solubility [13, 18] | Solubility ([13]; in water and dimethylsulfoxide) | SMILES | ED50 (50% effective dose) [14] [mg/kg/dose] | ED50 (50% effective dose) [15] [mg/kg/dose] | ED50 (50% effective dose) [16] [mg/kg/dose] | ED50 (50% effective dose) [17] [mg/kg/dose]
0.78 (≈ 0.623 µM) | 0.78 (≈ 0.623 µM) | 0.39 (≈ 0.311 µM) | 0.78 (≈ 0.623 µM) | 0.78 (≈ 0.623 µM) | 0.78 (≈ 0.623 µM) | 0.78 (≈ 0.623 µM) | 0.78 (≈ 0.623 µM) | 0.78 (≈ 0.623 µM) | 0.78 (≈ 0.623 µM) | 0.78 (≈ 0.623 µM) | 1.56 (≈ 1.25 µM) |  |  |  | CN[C@H](CC(C)C)C(=O)N[C@H]1C(=O)N[C@@H](CC(N)=O)C(=O)N[C@H]2C(=O)N[C@H]3C(=O)N[C@H](C(=O)N[C@H](C(=O)O)c4cc(O)cc(O)c4-c4cc3ccc4O)[C@H](O[C@H]3C[C@](C)(N)[C@@H](O)[C@H](C)O3)c3ccc(c(Cl)c3)Oc3cc2cc(c3O)Oc2ccc(cc2)[C@H]1O [Compd. D, des-(4-epi-vancosaminyl-O-glucosyl)-PA-42867-A] |  |  |  | 
0.78 (≈ 0.501 µM) | 0.78 (≈ 0.501 µM) | 0.39 (≈ 0.25 µM) | 0.39 (≈ 0.25 µM) | 0.78 (≈ 0.501 µM) | 0.39 (≈ 0.25 µM) | 0.39 (≈ 0.25 µM) | 0.39 (≈ 0.25 µM) | 0.78 (≈ 0.501 µM) | 1.56 (≈ 1 µM) | 0.78 (≈ 0.501 µM) | 0.78 (≈ 0.501 µM) | Slightly soluble | Insoluble | Soluble | CN[C@H](CC(C)C)C(=O)N[C@H]1C(=O)N[C@@H](CC(N)=O)C(=O)N[C@H]2C(=O)N[C@H]3C(=O)N[C@H](C(=O)N[C@H](C(=O)O)c4cc(O)cc(O)c4-c4cc3ccc4O)[C@H](O[C@H]3C[C@](C)(N)[C@@H](O)[C@H](C)O3)c3ccc(c(Cl)c3)Oc3cc2cc(c3O[C@@H]2O[C@H](CO)[C@@H](O)[C@H](O)[C@H]2O[C@H]2C[C@](C)(N)[C@@H](O)[C@H](C)O2)Oc2ccc(cc2)[C@H]1O [Compd. A, PA-42867-A] | 0.62 | 0.90 | 0.64 | 2.31
1.56 (≈ 1.1 µM) | 1.56 (≈ 1.1 µM) | 0.78 (≈ 0.551 µM) | 0.78 (≈ 0.551 µM) | 1.56 (≈ 1.1 µM) | 0.78 (≈ 0.551 µM) | 0.78 (≈ 0.551 µM) | 0.78 (≈ 0.551 µM) | 1.56 (≈ 1.1 µM) | 1.56 (≈ 1.1 µM) | 1.56 (≈ 1.1 µM) | 1.56 (≈ 1.1 µM) |  |  |  | CN[C@H](CC(C)C)C(=O)N[C@H]1C(=O)N[C@@H](CC(N)=O)C(=O)N[C@H]2C(=O)N[C@H]3C(=O)N[C@H](C(=O)N[C@H](C(=O)O)c4cc(O)cc(O)c4-c4cc3ccc4O)[C@H](O[C@H]3C[C@](C)(N)[C@@H](O)[C@H](C)O3)c3ccc(c(Cl)c3)Oc3cc2cc(c3O[C@@H]2O[C@H](CO)[C@@H](O)[C@H](O)[C@H]2O)Oc2ccc(cc2)[C@H]1O [Compd. C, des-(4-epi-vancosaminyl)-PA-42867-A] | 1.47 | 2.11 | 1.43 | 2.91
3.13 (≈ 2.03 µM) | 1.56 (≈ 1.01 µM) | 0.78 (≈ 0.505 µM) | 1.56 (≈ 1.01 µM) | 1.56 (≈ 1.01 µM) | 0.78 (≈ 0.505 µM) | 1.56 (≈ 1.01 µM) | 0.78 (≈ 0.505 µM) | 1.56 (≈ 1.01 µM) | 3.13 (≈ 2.03 µM) | 1.56 (≈ 1.01 µM) | 3.13 (≈ 2.03 µM) | Slightly soluble | Insoluble | Soluble | CN[C@H](CC(C)C)C(=O)N[C@H]1C(=O)N[C@@H](CC(N)=O)C(=O)N[C@H]2C(=O)N[C@H]3C(=O)N[C@H](C(=O)N[C@H](C(=O)O)c4cc(O)cc(O)c4-c4cc3ccc4O)[C@H](O[C@H]3C[C@](C)(N)[C@@H](O)[C@H](C)O3)c3ccc(c(Cl)c3)Oc3cc2cc(c3O[C@@H]2O[C@H](CO)[C@@H](O)[C@H](O)[C@H]2O[C@H]2C[C@H](O)[C@@H](O)[C@H](C)O2)Oc2ccc(cc2)[C@H]1O [Compd. B, PA-42867-B] |  |  |  | 

From US4946941A, “Novel glycopeptide antibiotics” (Shionogi & Co., Ltd., priority 1986, dated 1990)
